In patent US11472807B2, “Purine derivatives for use as medicament and for use in treating neurodegenerative or neuro-inflammatory disorders” (COMMISSARIAT À L'ENERGIE ATOMIQUE ET AUX ENERGIES …, priority 2017, dated 2022):

How the values were obtained:
[1] = system: IL-1β; assay: IL-1β mRNA in OHSC (RT-qPCR); format: cell-based, mice; conditions: 50 μM, 10 days, vs vehicle, P<0.001
Description: (§1) FIG. 10. Plots illustrating the effect of Aftin-5 on relative mRNA expression levels of interleukin-1-beta (IL-1β; (A)), interleukin-6 (IL-6; (B)), TNF-alpha (TNFα; (C)) and interleukin-10 (IL-10; (D)) in organotypic hippocampal slice cultures (OHSC). OHSC culture media […] were replaced by incubation medium containing Aftin-5 (50 μM; A50) or vehicle (0.1% DMSO; Veh). 10 days later, total mRNA in lysate was isolated and purified, cDNAs were then synthesized from […] of total mRNA. cDNAs were amplified by quantitative RT-PCR and the relative expression of specific genes was normalized to the housekeeping gene HPRT1 (2^−ΔCt). Mann-Whitney tests were performed and ***p<0.001 indicates significant differences between Aftin-5 and control conditions. Data expressed as means+/−SEM from q=3 independent experiments with n=4-6 inserts/condition and 10 slices/insert. […]
(§2) The impact of Aftin-5 on gene expression of different biomarkers was determined by measuring mRNA levels of selected BDNF, CREB, PS95, INS Receptor/IGF-1 receptor, IL-1β, IL-6 in OHSC treated chronically with Aftin-5 or in a total brain from mice exposed to Aftin-5 at either 8 or 30 mg/Kg. […] Threshold cycles (Ct) of target gene and cyclophilin A (Ppia−control housekeeping gene) were recorded and gene expression was calculated as 2^−ΔΔCt(ΔΔCt=ΔCttreated−ΔCtcontrol, ΔCt=Cttarget−CtPpia). […]

[2] = system: BDNF; assay: BDNF mRNA in OHSC (RT-qPCR); format: cell-based; conditions: OHSCs from WT mice, 50 μM, 10 days
Description: FIG. 15. Plots illustrating the effect of Aftin-5 on relative mRNA expression levels of Long Term Potentialisation (LTP) biomarkers, i.e CREB (A), PSD95 (B) and BDNF (C) in C57B16J OHSC mice treated chronically with Aftin-5. OHSC culture media of OHSC were replaced by incubation medium containing Aftin-5 (50 μM; A50) or vehicle (0.1% DMSO; Veh). 10 days later, total mRNA in lysate was isolated and purified, cDNAs were then synthesized from […] of total mRNA. cDNAs were amplified by quantitative RT-PCR and the relative expression of specific genes was normalized to the housekeeping gene HPRT1 (2^—ΔCt). […] Data expressed as means+/−SEM from q=3 independent experiments with n=4-6 inserts/condition and 10 slices/insert. […]
The impact of Aftin-5 on gene expression of different biomarkers was determined by measuring mRNA levels of selected BDNF, CREB, PS95, INS Receptor/IGF-1 receptor, IL-1β, IL-6 in OHSC treated chronically with Aftin-5 or in a total brain from mice exposed to Aftin-5 at either 8 or 30 mg/Kg. […] RNA concentration was measured spectrophotometrically at 260 nm in a NanoDrop 2000c (Thermo Scientific, Villebon-sur-Yvette, France) (sample A260 nm/A280 nm ratios over 1.8 indicated reduced genomic DNA contamination). cDNAs were synthesized from 0.5 μg of total RNA with RT^2 First Strand kit (Qiagen, Courtaboeuf, France) according to the manufacturer's protocol and stored at −80° C. […]

[3] = system: IL-6 cytokine; assay: Secreted IL-6 in LPS-treated human primary glial cells (MSD ELISA); format: cell-based; conditions: LPS 6 h, then purine derivative 10 μM for 18 h
Description: For assessing the cytokine production, human primary glial cells were grown until confluent on coated collagen 12-well plates. Cells were serum-starved in glial serum-free medium for 2 h and treated with LPS for 6 h before treatment with purine derivatives (10 μM) for an additional 18 h. Supernatants were harvested and secreted IL-6 cytokine was measured by ELISA by the mean of the Meso Scale Discovery (MSD) technology. Briefly, a 96-well plate having 1 spot pre-coated with the corresponding antibody is provided by MSD Technology. Before adding the samples, a first saturation step is required. Once the plate is saturated and washed, 25 μL of sample (or calibrators) per well are loaded and incubated for 1 hour. Then the plate is washed and incubated with 25 μL of the Detection Antibody solution (MSD SULFO-TAG) for 1 hour. At the end of the incubation, the plate is washed and then a chemical solution (Read buffer 1×) is added allowing electrochemiluminescence. After a short incubation (5 min) at room temperature, the plate is read on the QUICK Plex SQ120. The instrument measures the intensity of the light electrochemiluminescence.

[4] = system: GFAP and Iba-1 (microglial/astrocytes phenotype); assay: GFAP and Iba-1 mRNA in OHSC (RT-qPCR); format: cell-based, mice; conditions: 50 μM, 10 days
Description: as §1, with “FIG. 9.” for “FIG. 10.”, “of GFAP (left panel)” for “of interleukin-1-beta (IL-1β; (A)), interleukin-6 (IL-6; (B)), TNF-alpha (TNFα; (C))”, “and Iba-1 (right panel)” for “and interleukin-10 (IL-10; (D))”, “mRNA. cDNA” for “mRNA. cDNAs”, “and show no” for “and ***p<0.001 indicates”
as §2

CC[C@H](CO)Nc1nc(N(C)c2ccccc2)c2ncn(C(C)C)c2n1 [Aftin-5]
IL-1β-mRNA synthesis [1]: significantly decrease | BDNF mRNA [2]: transcriptional upregulation | Anti-inflammatory Compounds (secreted IL-6) [3]: +(>1 μM) (“+” means that the tested compound shows an anti-inflammatory and/or attenuation of Tau's phosphorylation property with a concentration higher than 1 μM) | microglial/astrocytes phenotype (GFAP, Iba-1 mRNA) [4]: does not affect
